Where two headings read alike, the source gives them in different places.

This test has as its target T1, Human BCL-XL protein (N-terminal HiBiT tagged BCL-XL in HT1080 cells) (Homo sapiens, UniProt Q07817).
T1 construct: expressed in transfected cells; host or cells: HT-1080 (ATCC CCL-121), stably transduced with lentivirus pLV-UBC-N-HiBiT-BCL-XL-PGK-puro and selected with puromycin
Kind of test: HiBiT based degradation assay. The format is cell-based. The following applies: HT1080 cells expressing HiBiT-BCL-XL; for Ymin (24 h) / Ymin (6 h): BCL-XL degradation normalized with DMSO control; for DC50: BCL-XL degradation. Put shortly:
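This HiBiT degradation assay measured loss of BCL-XL in HT1080 cells that stably express an N-terminal HiBiT-BCL-XL fusion delivered by lentivirus. Cells were added to compound-spotted 384-well plates, and luminescence was read on a PHERAstar FSX reader. Signal was expressed relative to DMSO controls, curves were fitted by four-parameter logistic regression, and for hook-shaped curves the Ymin point served as the bottom plateau when calculating EC50.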

T1 sequence (Q07817 whole entry): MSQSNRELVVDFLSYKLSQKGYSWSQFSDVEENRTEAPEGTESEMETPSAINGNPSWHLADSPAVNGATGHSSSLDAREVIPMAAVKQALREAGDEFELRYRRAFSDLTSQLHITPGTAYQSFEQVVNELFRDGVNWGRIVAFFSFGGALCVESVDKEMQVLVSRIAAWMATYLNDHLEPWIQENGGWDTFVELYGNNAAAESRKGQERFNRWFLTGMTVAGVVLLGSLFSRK

As for `Cc1c(OCCCC2CCN(CCN3CCC(c4cccc5c(C6CCC(=O)NC6=O)nn(C)c45)CC3)CC2)cccc1-c1ccc(N2CCc3cccc(C(=O)Nc4nc5ccccc5s4)c3C2)nc1C(=O)O` (centres unmarked) [Compound 256, 6-[8-(1,3-benzothiazol-2-ylcarbamoyl)-3,4-dihydro-1H-isoquinolin-2-yl]-3-[3-[3-[1-[2-[4-[3-(2,6-dioxo-3-piperidyl)-1-methyl-indazol-7-yl]-1-piperidyl]ethyl]-4-piperidyl]propoxy]-2-methyl-phenyl]pyridine-2-carboxylic acid], the “Ymin (24 h)” value (24 h) was “A (Ymin < 50%)”. Further, the DC50 (24 h, read-out: EC50 (24 h)) was less than 100 nM.
For the molecule `Cc1c(O[C@H]2CC[C@H](CCCCN3CCN(c4ccc5c(C6CCC(=O)NC6=O)nn(C)c5c4)C[C@@H]3C)CC2)cccc1-c1ccc(N2CCc3cccc(C(=O)Nc4nc5ccccc5s4)c3C2)nc1C(=O)O` (stereo partly drawn) [Compound 297b, 6-(8-(benzo[d]thiazol-2-ylcarbamoyl)-3,4-dihydroisoquinolin-2(1H)-yl)-3-(3-(((1r,4r)-4-(4-((2S)-4-(3-(2,6-dioxopiperidin-3-yl)-1-methyl-1H-indazol-6-yl)-2-methylpiperazin-1-yl)butyl)cyclohexyl)oxy)-2-methylphenyl)picolinic acid], for the setting “24 h”, the “Ymin (24 h)” value is given as “A (Ymin < 50%)”. Besides, the DC50 (24 h, read-out: EC50 (24 h)) is less than 100 nM.
For the molecule `Cc1c(OCCCN2CCN(CC(=O)Nc3cccc4c(C5CCC(=O)NC5=O)nn(C)c34)CC2)cccc1-c1ccc(N2CCc3cccc(C(=O)Nc4nc5ccccc5s4)c3C2)nc1C(=O)O` (centres unmarked) [Compound 105, 6-[8-(1,3-benzothiazol-2-ylcarbamoyl)-3,4-dihydro-1H-isoquinolin-2-yl]-3-[3-[3-[4-[2-[[3-(2,6-dioxo-3-piperidyl)-1-methyl-indazol-7-yl]amino]-2-oxo-ethyl]piperazin-1-yl]propoxy]-2-methyl-phenyl]pyridine-2-carboxylic acid], under “6 h”, the “Ymin (6 h)” value was “B (50% ≤ Ymin < 70%)”. In addition, the “Ymin (24 h)” value (24 h) was “B (50% ≤ Ymin < 70%)”. Besides, the DC50 by setting is: (6 h, read-out: EC50 (6 h)) less than 100 nM; (24 h, read-out: EC50 (24 h)) 100 to 1000 nM.
As to `Cc1c(-c2ccc(N3CCc4cccc(C(=O)Nc5nc6ccccc6s5)c4C3)nc2C(=O)NCCCCCCCC(=O)Nc2cccc3c(C4CCC(=O)NC4=O)nn(C)c23)cnn1CC12CC3CC(CC(C3)C1)C2` (centres unmarked) [Compound 114, 2-[5-[1-(1-adamantylmethyl)-5-methyl-pyrazol-4-yl]-6-[[8-[[3-(2,6-dioxo-3-piperidyl)-1-methyl-indazol-7-yl]amino]-8-oxo-octyl]carbamoyl]-2-pyridyl]-N-(1,3-benzothiazol-2-yl)-3,4-dihydro-1H-isoquinoline-8-carboxamide], the “Ymin (6 h)” value (6 h) was “A (Ymin < 50%)”. Moreover, under “6 h, read-out: EC50 (6 h)”, the DC50 was less than 100 nM.
For `Cc1c(-c2ccc(N3CCc4cccc(C(=O)Nc5nc6ccccc6s5)c4C3)nc2C(=O)NCCCCCCCCCC(=O)Nc2ccc3c(C4CCC(=O)NC4=O)nn(C)c3c2)cnn1CC12CC3CC(CC(C3)C1)C2` (centres unmarked) [Compound 112, 2-[5-[1-(1-adamantylmethyl)-5-methyl-pyrazol-4-yl]-6-[[10-[[3-(2,6-dioxo-3-piperidyl)-1-methyl-indazol-6-yl]amino]-10-oxo-decyl]carbamoyl]-2-pyridyl]-N-(1,3-benzothiazol-2-yl)-3,4-dihydro-1H-isoquinoline-8-carboxamide] the same measures were “B (50% ≤ Ymin < 70%)” and less than 100 nM.
With `Cn1nc(C2CCC(=O)NC2=O)c2ccc(N3CCN(CCCC[C@H]4CC[C@H](Oc5cccc(-c6ccc(N7CCc8cccc(C(=O)Nc9nc%10ccccc%10s9)c8C7)nc6C(=O)O)c5C(F)(F)F)CC4)CC3)cc21` (some centres unmarked) [Compound 319a, 6-(8-(benzo[d]thiazol-2-ylcarbamoyl)-3,4-dihydroisoquinolin-2(1H)-yl)-3-(3-(((1s,4r)-4-(4-(4-(3-(2,6-dioxopiperidin-3-yl)-1-methyl-1H-indazol-6-yl)piperazin-1-yl)butyl)cyclohexyl)oxy)-2-(trifluoromethyl)phenyl)picolinic acid], for the setting “24 h”, the “Ymin (24 h)” value is listed as “A (Ymin < 50%)”. The DC50 (24 h, read-out: EC50 (24 h)) is less than 100 nM.
Taken in the same sequence, the figures for `Cc1c(O[C@H]2CC[C@H](CCCN3CCN(c4ccc5c(C6CCC(=O)NC6=O)nn(C)c5c4C)CC3)CC2)cccc1-c1ccc(N2CCc3cccc(C(=O)Nc4nc5ccccc5s4)c3C2)nc1C(=O)O` (some centres unmarked) [Compound 334a, 6-(8-(benzo[d]thiazol-2-ylcarbamoyl)-3,4-dihydroisoquinolin-2(1H)-yl)-3-(3-(((1s,4r)-4-(3-(4-(3-(2,6-dioxopiperidin-3-yl)-1,7-dimethyl-1H-indazol-6-yl)piperazin-1-yl)propyl)cyclohexyl)oxy)-2-methylphenyl)picolinic acid] were “A (Ymin < 50%)” and less than 100 nM.
In the case of `Cc1c(O[C@H]2CC[C@H](CC[C@@H](C)CN3CCN(c4ccc5c(C6CCC(=O)NC6=O)nn(C)c5c4)CC3)CC2)cccc1-c1ccc(N2CCc3cccc(C(=O)Nc4nc5ccccc5s4)c3C2)nc1C(=O)O` (single isomer, unassigned) [Compound 308a], the “Ymin (24 h)” value (24 h) is “A (Ymin < 50%)”. In addition, under “24 h, read-out: EC50 (24 h)”, the DC50 is less than 100 nM.
Turning to `Cc1cc(OCCCN2CCN(CC(=O)N3CCN(c4cccc5c(C6CCC(=O)NC6=O)nn(C)c45)CC3)CC2)ccc1-c1ccc(N2CCc3cccc(C(=O)Nc4nc5ccccc5s4)c3C2)nc1C(=O)O` (centres unmarked) [Compound 152, 6-(8-(Benzo[d]thiazol-2-ylcarbamoyl)-3,4-dihydroisoquinolin-2(1H)-yl)-3-(4-(3-(4-(2-(4-(3-(2,6-dioxopiperidin-3-yl)-1-methyl-1H-indazol-7-yl)piperazin-1-yl)-2-oxoethyl)piperazin-1-yl)propoxy)-2-methylphenyl)picolinic acid], the “Ymin (6 h)” value (6 h) is recorded as “B (50% ≤ Ymin < 70%)”. For the same molecule, the “Ymin (24 h)” value (24 h) is “A (Ymin < 50%)”. Also, the DC50 by setting is: (6 h, read-out: EC50 (6 h)) less than 100 nM; (24 h, read-out: EC50 (24 h)) less than 100 nM.
Regarding `Cc1c(OCCCC2CCN([C@@H](C)C(=O)Nc3ccc4c(C5CCC(=O)NC5=O)nn(C)c4c3)CC2)cccc1-c1ccc(N2CCc3cccc(C(=O)Nc4nc5ccccc5s4)c3C2)nc1C(=O)O` (stereo partly drawn) [Compound 164a, 6-(8-(benzo[d]thiazol-2-ylcarbamoyl)-3,4-dihydroisoquinolin-2(1H)-yl)-3-(3-(3-(1-((2S)-1-((3-(2,6-dioxopiperidin-3-yl)-1-methyl-1H-indazol-6-yl)amino)-1-oxopropan-2-yl)piperidin-4-yl)propoxy)-2-methylphenyl)picolinic acid], the “Ymin (24 h)” value (24 h) was “A (Ymin < 50%)”. For the same molecule, the DC50 (24 h, read-out: EC50 (24 h)) is less than 100 nM.
`Cc1c(OCC(F)(F)CC2CCN(CC(=O)Nc3cccc4c(C5CCC(=O)NC5=O)nn(C)c34)CC2)cccc1-c1ccc(N2CCc3cccc(C(=O)Nc4nc5ccccc5s4)c3C2)nc1C(=O)O` (centres unmarked) [Compound 170, 6-[8-(1,3-benzothiazol-2-ylcarbamoyl)-3,4-dihydro-1H-isoquinolin-2-yl]-3-[3-[3-[1-[2-[[3-(2,6-dioxo-3-piperidyl)-1-methyl-indazol-7-yl]amino]-2-oxo-ethyl]-4-piperidyl]-2,2-difluoro-propoxy]-2-methyl-phenyl]pyridine-2-carboxylic acid]: the “Ymin (24 h)” value (24 h) is “B (50% ≤ Ymin < 70%)”. The DC50 (24 h, read-out: EC50 (24 h)) was in the range of 100 to 1000 nM.
